The nature of this data set: Human HepG2 cell viability assay in 384 well format. The format is toxicity, cell-based. Set-up: dose 125 nL, time 70.5 hour; cytotoxicity at 70.5 h: concentration not given beside the values. The note with it: HepG2 cells, read-out: Inhibition.

As to `Cc1cc(N2CCC(CO)(CC3CCCCO3)CC2)nc2ccccc12` (stereo unspecified), the cytotoxicity at 70.5 h is -9.32%.
`Cc1nc2c(c(NCc3ccc(-c4ccccn4)s3)n1)CCNCC2`: the cytotoxicity at 70.5 h was -8.23%.
In the case of `CN(C)C(=O)N1C[C@H]2CC[C@@H]1CN(C1Cc3ccccc3C1)C2`, the cytotoxicity at 70.5 h was -9.42%.
Consider `Cc1cc2c(N3CCC(N(C)CCc4cnn(C)c4)CC3)ncnc2s1`, for which the cytotoxicity at 70.5 h was found to be 2.46%.
`CN(C)c1nc2c(c(N(C)Cc3n[nH]c4c3CCCCC4)n1)CCNC2`: the cytotoxicity at 70.5 h is -9.48%.
Take `CN1CCCN(C(=O)c2nc3sccn3c2-c2ncc[nH]2)CC1`: the cytotoxicity at 70.5 h is -13%.
Next, `CCC(CO)N(Cc1ccccn1)C(=O)c1ccc(CSC)o1` (stereo unspecified): -0.517%; `Cc1noc(C)c1-c1n[nH]c2c1CN(S(=O)(=O)c1ccsc1)CC2`: 15.3%.
Next, `O=C(Cc1ccc2c(c1)OCO2)N1CCN(c2ccccc2Cl)C(=O)C1`: -4.7%.
Next, `CS(=O)(=O)N1C[C@H]2CC[C@@H]1CN(Cc1ccncc1)C2`: -10.9%; `Cc1nc2c(c(NCC(=O)NC(C)C)n1)Cc1ccccc1OC2`: -2.23%; `CC(C)Cc1noc(CN(C)c2cc(N(C)C)ncn2)n1`: -7.9%.
In the case of `COCCN1CCC(CN(CC2CCCO2)C(=O)Cc2cccs2)CC1` (stereo unspecified), the cytotoxicity at 70.5 h is -4.23%.
Take `CCn1c(C2CCCN(Cc3cc(C)cc(C)c3)C2)nn(C)c1=O` (stereo unspecified): the cytotoxicity at 70.5 h was 3.73%.
Next, `CSc1ncc(CN2C[C@H]3CC[C@@H]2CN(C2CCOCC2)C3)cn1`: -3.4%; `CCC[C@H]1CN(CCOC)C[C@@H]1NC(=O)Cn1cc(C)cn1`: 4.5%.
Consider `CC(C)CCN1CC2(CCN(C(=O)C3(C)CCCCO3)CC2)OC1=O` (stereo unspecified), for which the cytotoxicity at 70.5 h worked out at 49.2%.
For `CC(C)(C)CN1CCCC(O)(CN2CCc3[nH]ncc3C2)C1=O` (stereo unspecified), the cytotoxicity at 70.5 h is -1.48%.
Next, `Cc1cc(C(=O)NC(C)C(=O)Nc2cc(F)ccc2C)nc(C)n1` (stereo unspecified): 5.43%.
The value for `CCc1cnc(NCCCOC2CCCC2)nc1` was -16.5%; that for `COCCN(Cc1sccc1C)C(=O)COc1cccnc1` was -4.34%.
As to `Cc1ccc([C@@H]2CN(C(=O)c3cc[nH]c3)C[C@H]2NC(=O)C2CC2)cc1`, the cytotoxicity at 70.5 h is -10.7%.
For `CN(CCc1noc(C2CC2)n1)C(=O)CCc1cc2n(n1)CCCNC2`, the cytotoxicity at 70.5 h was -9.33%.
The value for `CCC(C)N(Cc1sccc1C)C(=O)c1cnc[nH]1` (stereo unspecified) was -6.28%; that for `O=C(O)c1coc(COc2cccc3cnccc23)n1` was -7.63%.
Turning to `N#CC1(C(=O)N2C[C@H]3CC[C@@H]2CN(Cc2cscn2)C3)CCOCC1`, the cytotoxicity at 70.5 h was determined as 15.7%.
The value for `O=C(c1ccccc1)N1C[C@@H]2CC[C@H](C1)N(Cc1cc(F)ccc1Cl)C2` was 27%; that for `CC(=O)c1ccc(-c2cnn(CC(=O)Nc3ccnn3C)c2)nc1` was -9.08%; that for `O=C(CN1CCCC1)N1CCCC(CNS(=O)(=O)Cc2ccccc2)C1` (stereo unspecified) was 22.2%.
Consider `Cc1nc(C(C)Nc2ncnc3c2CCNCC3)c(C)s1` (stereo unspecified), for which the cytotoxicity at 70.5 h was -4.99%.
Next, `CCOc1ccc(CN2CC[C@H]3CC[C@@H](C2)N3)cc1CO`: -14%.
Next, `CCOC(=O)C1(Cc2cccc(OC)c2)CCCN(Cc2ncc[nH]2)C1` (stereo unspecified): 22%; `CCN1CC2(CCC1=O)CCN(Cc1cccc(OC(F)F)c1)CC2`: 20.5%; `CC(O)CN1CC2(CCC1=O)CCN(C(=O)c1cnn(C)c1)CC2` (stereo unspecified): -1.73%.
Next, `O=C(c1cccnc1SC/C=C/c1ccccc1)N1CC[C@H](O)C1`: 2.11%; `CC(C)c1nnsc1CN1CCc2[nH]nc(-c3ccc(Cl)cc3)c2C1`: 9.53%; `COCCn1ccnc1C1CCN(C(=O)c2cccc(COC)n2)CC1`: -4.2%.
With `CC(C)c1cc(C2CCCN2C(=O)CN2C(=O)CCNC2=O)no1` (stereo unspecified), the cytotoxicity at 70.5 h was -5.21%.
Next, `O=C(CCN1CCCCO1)N1CCC(CO)(Cc2ccccc2)CC1`: -6.23%; `CC1(C)CN(Cc2cc(C3CCCCC3)no2)CC[C@]1(C)O`: -12.5%; `Cc1cc(C)c2nc(CNC3CCCNC3=O)cc(O)c2c1` (stereo unspecified): -6.5%.
The value for `COC(=O)CCCNC(=O)c1cc(COc2cncc(Cl)c2)on1` was 0.545%; that for `O=C(C1CC1)N1CCc2c(ncnc2NCCc2nc3c(s2)CCC3)C1` was 13.5%.
In the case of `Fc1ccccc1C1(CNC2CCOC3(CCOCC3)C2)CCCC1` (stereo unspecified), the cytotoxicity at 70.5 h is -9.34%.
Turning to `COc1cccc(OC)c1-c1c[nH]c(C)n1`, the cytotoxicity at 70.5 h is -19.9%.
The value for `CC(C)C(C)N(Cc1cnc2ccccc2n1)Cc1ccco1` (stereo unspecified) was -8.62%; that for `CC(=O)Nc1ccc(CNC(=O)CNCc2sc(C)nc2C)cc1` was 6.71%; that for `CCC(NC(=O)CC1CCN(C(C)C)CC1)c1cn2cccnc2n1` (stereo unspecified) was 1.45%.
Consider `Cc1ccccc1N1CCN(c2nc(N(C)C)nc3c2CCNC3)CC1`, for which the cytotoxicity at 70.5 h amounted to 33.6%.
Turning to `Nc1nnc(SCC(=O)NCC(O)c2ccccc2)s1` (stereo unspecified), the cytotoxicity at 70.5 h came out at 18.6%.
The value for `CCN(C)C[C@@H]1CN(S(=O)(=O)c2ccc(C#N)cc2)C[C@@H]1CO` was -1.6%; that for `Cn1ncc2c(N3CCC(F)(F)CC3)nc(-c3ccncc3)nc21` was -13.7%; that for `COc1ccc(-c2ccoc2)cc1CNC1CCCC1` was 10.7%.
Next, `CCc1nccc(CN2CCCC(CNC(=O)c3occc3C)C2)n1` (stereo unspecified): -10.1%.
As to `COCc1ncc(CN(Cc2ccco2)C(C)C(C)C)cn1` (stereo unspecified), the cytotoxicity at 70.5 h is -15.5%.
For the molecule `Cc1nc(N)nc(C)c1CC(=O)N1CCCN(CC2CC2)C(C(C)C)C1` (stereo unspecified), the cytotoxicity at 70.5 h was -8.22%.
Consider `CC(CNc1nccc(C(C)C)n1)Oc1cccnc1` (stereo unspecified), for which the cytotoxicity at 70.5 h was -6.89%.
Regarding `CCN(CC1=CCN(C)CC1)C(=O)CCOC`, the cytotoxicity at 70.5 h is -6.72%.
In the case of `CNc1ccnc(NCCC(=O)Nc2ccccc2OC)n1`, the cytotoxicity at 70.5 h is -3.36%.
Next, `N[C@H]1CC[C@@H](n2cc(C(=O)NC3CCc4ccccc4C3)nn2)CC1` (stereo partly specified): -11.5%.
With `CN(Cc1ccccc1)S(=O)(=O)N1C[C@@H](C(=O)O)[C@H](C2CC2)C1`, the cytotoxicity at 70.5 h is -6.58%.
Next, `C[C@@H]1CN(Cc2cccnc2)C[C@]1(C)O`: -15.2%; `Oc1cccc(CN2C[C@H]3CC[C@@H]2CN(Cc2ccc(F)cc2)C3)c1`: -1.41%; `CN1CCN(Cc2ccccc2Oc2ccc(C(N)=O)cn2)CC1`: -6.47%.
Regarding `Cc1n[nH]c(C)c1CC(=O)N1CC[C@@](C)(O)[C@@H](Cc2ccccc2)C1`, the cytotoxicity at 70.5 h was -16.1%.
Next, `CCCNc1ncc(CN2C[C@H]3CC[C@@H]2CN(C2CCOCC2)C3)cn1`: 2.68%.
The value for `CN(CCn1cnc(-c2ccccc2)c1-c1ncc[nH]1)S(C)(=O)=O` was 7.51%; that for `c1ccc2c(c1)cnn2CCCNC1CCOC2(CCOCC2)C1` (stereo unspecified) was -13.6%.
For the molecule `CCO[C@H]1CN(C)C[C@@H]1NC(=O)c1c[nH]nc1C1CCCCC1`, the cytotoxicity at 70.5 h amounted to 21.2%.
Regarding `CC(C)(CNc1cccc(Cl)c1)NC(=O)C1CCCN(CC(N)=O)C1` (stereo unspecified), the cytotoxicity at 70.5 h is -8.71%.
The value for `CN1CCC(N(CCc2ccccc2)C(=O)c2ccc(C#N)cc2)CC1` was -7.31%; that for `O=C(O)c1cc(-n2cc3c(n2)CCC3)cc(S(=O)(=O)N2CCOCC2)c1` was 3.53%.
The value for `Cc1nc(C(C)C)sc1C(=O)NCCSc1nccn1C` was -10.1%.
In the case of `CCC1CN(Cc2nc(C(C)C)no2)CCC(=O)N1Cc1ccccc1` (stereo unspecified), the cytotoxicity at 70.5 h turned out to be 22.7%.
The value for `Cc1ccnc(NC(=O)c2ccc(C)o2)c1` was 12.1%.
As to `CCOc1cccc(CN2CCCn3nc(CNS(C)(=O)=O)cc3C2)c1`, the cytotoxicity at 70.5 h was -9.54%.
Next, `CN(C)C(=O)CN1CCC(c2nnc(Cn3cccn3)n2C2CC2)CC1`: -12%; `Cc1cc(C)n(CC(=O)N2C[C@@H]3CC[C@H](C2)N(CC2CCC2)C3)c(=O)n1`: 24.1%.
Consider `CC(C)c1nc(N2CCC(N3CCCCCC3)CC2)c2cnn(C)c2n1`, for which the cytotoxicity at 70.5 h was found to be 13%.
Next, `O=C(NCc1ccc(C(=O)N2CCCC2)cc1)c1cn2c(n1)CNCC2`: -3.69%; `CC(=O)NCCc1cn(-c2cc(F)ccc2C)cn1`: -8.56%.
The value for `COc1cccc2c1OCC(Cc1ccc(N)nc1C)C2` (stereo unspecified) was -1.03%.
As to `CCCc1ccc(CN2C[C@H]3C(=O)N(CC4CC4)C[C@@]3(C(=O)O)C2)o1`, the cytotoxicity at 70.5 h is -6.58%.
As for `CC(C)N1CCCC2(CCN(Cc3nncn3C(C)C)C2)C1=O` (stereo unspecified), the cytotoxicity at 70.5 h is -0.727%.
On to `COCCc1noc(CN(C)C(=O)C(C)N2CCc3ccccc3C2)n1` (stereo unspecified), for which the cytotoxicity at 70.5 h was -9.3%.
For `CCn1ncc2[nH]c(-c3cc(OC)c(OC)cc3OC)nc21`, the cytotoxicity at 70.5 h was determined as 29.7%.
The value for `Cc1cc(CNCc2c(C)n(CC(C)C)c3ccccc23)[nH]n1` was -5.55%.
Consider `Cc1nn(C)c2nc(N(Cc3ccccn3)CC3CCCO3)sc12` (stereo unspecified), for which the cytotoxicity at 70.5 h came out at 17.1%.
Next, `Cc1noc(-c2ccc(N3CCN(Cc4ncccc4C)CC3)nc2)n1`: -7.47%.
Next, `Cc1csc2ncnc(N3CCC(Cn4cc(C(C)(C)O)nn4)CC3)c12`: 5.18%; `CCOCc1nc(CSc2ccncc2)n(C2CCN(C)CC2)n1`: 13%; `CC(C)Cc1cc(C(=O)N2CCC[C@H]2C(=O)N2CCOCC2)on1`: -9.69%.
Next, `CCc1nccn1CCC(=O)N1CC[C@H](CO)[C@H](O)C1`: -10.2%; `Cc1ncsc1CN1C[C@H]2CC[C@@H]1CN(Cc1ccccc1)C2`: 30%.
As to `O=c1[nH]nc(C2CC2)n1-c1cccc(Cl)c1`, the cytotoxicity at 70.5 h was -4.41%.
For the molecule `COCCOC(=O)N1CCC(c2nccn2CC2CC2)CC1`, the cytotoxicity at 70.5 h is -4.36%.

The record behind these values is ChEMBL document CHEMBL3507680, “University of Dundee, Gates Library screen for HepG2 cell viability”.
